Measured values published in patent US20230174484A1, “ANTAGONISTS OF GPR39 PROTEIN” (Oregon Health & Science University, priority 2020, published 2023).

Each molecule was assayed against T1, human GPR39 receptor (Homo sapiens, UniProt O43194) (assay: Measurement of intracellular calcium response in PC3 cells (FLIPR), antagonism of the C3 agonist response). Settings: functional pKi (modified Cheng-Prusoff), inhibition of the C3 (TC-G 1008) response at EC90, 30 μM ZnCl2, read-out: fpKi activity.
T1 construct: PC3 Cells, Expressing the Endogenous Human GPR39 Receptor; endogenous in cells; host or cells: PC3 (human prostate adenocarcinoma) cells
T1 sequence (O43194 1-453): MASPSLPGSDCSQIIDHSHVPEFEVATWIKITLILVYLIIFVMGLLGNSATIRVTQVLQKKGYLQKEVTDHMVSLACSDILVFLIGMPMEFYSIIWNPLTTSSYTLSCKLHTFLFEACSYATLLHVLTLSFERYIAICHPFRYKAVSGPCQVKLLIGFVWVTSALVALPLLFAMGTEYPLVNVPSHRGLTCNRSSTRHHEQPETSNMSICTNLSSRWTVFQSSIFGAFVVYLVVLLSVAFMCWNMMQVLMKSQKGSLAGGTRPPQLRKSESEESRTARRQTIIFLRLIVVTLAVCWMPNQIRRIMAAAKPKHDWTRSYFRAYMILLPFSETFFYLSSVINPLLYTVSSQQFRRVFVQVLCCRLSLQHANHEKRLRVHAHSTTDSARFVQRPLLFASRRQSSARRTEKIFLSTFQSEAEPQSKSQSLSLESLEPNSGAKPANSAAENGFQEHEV
Type: cell-based
Experimental: Human prostate adenocarcinoma (PC3) cells endogenously expressing human GPR39 receptor were seeded into black walls clear-base 384-well plates at a density of 7,500 cells per well in DM EM (Low Glucose) supplemented with 10% heat-inactivated foetal bovine serum and 1% of Pen/Strep and grown overnight at 37° C., 5% CO2. After washing with assay buffer (20 mM HEPES, 137 mM NaCI, 5.4 mM KCI, 10 mM glucose, 0.8 mM MgSO4, 1.3 mM CaCl2, 0.3 mM Na2HPO4, 0.4 mM KH2PO4 4.2 mM NaHCO3, pH 7.4), cells were incubated with Calcium-6 probe (Molecular Devices) at 37° C. for 2h and then equilibrated at RT for 30 minutes on metal block. The fluorescence was measured in real time by Fluorometric Imaging Plate Reader (FLIPR TETRA, Molecular Devices) (excitation wavelength at 470-495 nm, emission wavelength at 515-575 nm).
Compounds of invention were serially diluted in neat DMSO at 1000 fold concentrations and plated into 384-well plates and then 200-fold diluted in assay buffer containing 150 uM ZnCl2 (30 μM final concentration) and […].
Fluorescence was monitored throughout the run assay. The peak of Ca2+stimulation (baseline subtracted) was expressed as percentage of the maximal inhibition of the EC90 C3 response and was plotted versus the concentration of test compound. Curve fitting and IC50 estimations are carried out using a four-parameter logistic model using XLfit Software.
The potency of compounds was reported as functional pKi (—Log10Ki) obtained using the modified Cheng-Prusoff relationship (Cheng, Y., Prusoff, W. H. 1973.)
fKi =IC50/(1+[L]/EC50) where IC50 is the concentration of antagonist required for 50% inhibition of the maximum response, [L] is the concentration of the agonist used (EC90) and EC50 is the concentration of agonist need to induced 50% of the maximum response (obtained in each experimental plate).
An fpKi less than 5.2 is reported as “+/±”. An fpKi ranging from 5.2 to 5.9 is reported as “+”. An fpKi from 6.0 to 6.5 is reported as “++”. An fpKi from 6.6 to 7.2 is reported as “+++”. An fpKi equal to or greater than 7.3 is reported as “++++”.

SMILES	Ki [nM]
O=C(Nc1ccc(C(=O)N2CCS(=O)(=O)CC2)c(-n2ccc(C(F)(F)F)n2)c1)C1CC1 [Example 181, N-[4-(1,1-dioxo-1,4-thiazinane-4-carbonyl)-3-[3-(trifluoromethyl)pyrazol-1-yl]phenyl]cyclopropanecarboxamide]	≤ 50.1
CN1CCN(C(=O)c2ccc(NC(=O)C3CC3)nc2N2CCCC(F)(F)C2)C(c2ccccc2)C1 (racemic) [Example 144, N-[6-(3,3-difluoropiperidin-1-yl)-5-(4-methyl-2-phenylpiperazine-1-carbonyl)pyridin-2-yl]cyclopropanecarboxamide]	63.1 to 251
C[C@@H]1C[C@@H](C)CN(c2cc(NC(=O)C3CC3)ccc2-c2ncc3n2CCN(C)C3)C1 (relative stereo) [Example 104a, N-[3-(3,5-dimethylpiperidin-1-yl)-4-(7-methyl-6,8-dihydro-5H-imidazo[1,5-a]pyrazin-3-yl)phenyl] cyclopropanecarboxamide]	316 to 1000
O=C(NCc1cccnc1)c1ccc(NC(=O)C2CC2)cc1N1CCCCCC1 [Example 44, 2-(azepan-1-yl)-4-(cyclopropanecarbonylamino)-N-(pyridin-3-ylmethyl)benzamide]	1260 to 6310
CN1CCN(C(=O)c2ccc(NC(=O)C3CC3)cc2N2CCCC2)C(c2cccc(F)c2)C1 (single isomer, unassigned) [Example 88a, N-[4-[2-(3-fluorophenyl)-4-methylpiperazine-1-carbonyl]-3-pyrrolidin-1-ylphenyl]cyclopropanecarboxamide]	63.1 to 251
CCCN1CCN(C(=O)c2ccc(NC(=O)C3CC3)cc2N2CCCCCC2)C(c2ccccc2)C1 (single isomer, unassigned) [Example 73a, N-[3-(azepan-1-yl)-4-(2-phenyl-4-propylpiperazine-1-carbonyl)phenyl]Cyclopropanecarboxamide]	≤ 50.1
CCCN1CCN(C(=O)c2ccc(NC(=O)C3CC3)cc2N2CCC3(CCC3)C2)CC1 [Example 1, N-(4-(4-propylpiperazine-1-carbonyl)-3-(6-azaspiro[3.4]octan-6-yl)phenyl)cyclopropanecarboxamide]	≤ 50.1
Cc1nnc(-c2ccc(C(=O)N3CCN(C)CC3c3ccccc3)c(N3CCC(C(F)(F)F)C3)c2)[nH]1 (single isomer, unassigned) [Example 177a, (2S, 3R) or (2R, 3S) or (2R, 3R) or (2S, 3S) (4-methyl-2-phenylpiperazin-1-yl)-[4-(5-methyl-4H-1,2,4-triazol-3-yl)-2-[3-(trifluoromethyl)pyrrolidin-1-yl]phenyl]methanone]	63.1 to 251
O=C(Nc1ccc(C(=O)N2CCN(Cc3ccon3)CC2c2ccccc2)c(N2CCCCCC2)c1)C1CC1 (centres unmarked) [Example 82, N-[3-(azepan-1-yl)-4-[4-(1,2-oxazol-3-ylmethyl)-2-phenylpiperazine-1-carbonyl]phenyl]Cyclopropanecarboxamide]	≤ 50.1
CN1CCN(C(=O)c2ccc(NC(=O)C3CC3)cc2N2CCC(F)(F)C2)C(c2ccccc2)C1 (single isomer, unassigned) [Example 202a, N-[3-(3,3-difluoropyrrolidin-1-yl)-4-(2R or 2S)-4-methyl-2-phenylpiperazine-1-carbonyl)phenyl]cyclopropanecarboxamide]	1260 to 6310
Cc1nnc(-c2ccc(C(=O)N3CCN(C)CC3c3ccccc3)c(N3CCCC3)c2)[nH]1 (racemic) [Example 150c, (4-methyl-2-phenylpiperazin-1-yl)-[4-(5-methyl-4H-1,2,4-triazol-3-yl)-2-pyrrolidin-1-ylphenyl]methanone]	63.1 to 251
CN1CCN(C(=O)c2ccc(NC(=O)C3CC3)cc2N2CCC(C(F)(F)F)C2)C(c2ccccc2)C1 (single isomer, unassigned) [Example 199c, (2S, 3R) or (2R, 3S) or (2R, 3R) or (2S, 3S) N-[4-(4-methyl-2-phenylpiperazine-1-carbonyl)-3-[3-(trifluoromethyl)pyrrolidin-1-yl]phenyl]cyclopropanecarboxamide]	63.1 to 251
O=C(Nc1ccc(C(=O)N2CCSCC2c2ccccc2)c(N2CCCC2)c1)C1CC1 (centres unmarked) [Example 58, N-[4-(3-phenylthiomorpholine-4-carbonyl)-3-pyrrolidin-1-ylphenyl]cyclopropanecarboxamide]	63.1 to 251

Results, then the molecule that gave them:

Ki [nM]	SMILES
1260 to 6310	O=C(Nc1ccc(C(=O)N2CCn3c(nnc3C(F)(F)F)C2)c(N2CCCCCC2)c1)C1CC1 [Example 41]
63.1 to 251	CN1CCN(C(=O)c2ccc(NC(=O)C3CC3)cc2N2CCCCC2)C(c2ccccc2)C1 (racemic) [Example 201c, N-[4-(4-methyl-2-phenylpiperazine-1-carbonyl)-3-piperidin-1-ylphenyl]cyclopropanecarboxamide]
1260 to 6310	CS(=O)(=O)C1CCN(C(=O)c2ccc(NC(=O)C3CC3)cc2N2CCCC2)CC1 [Example 218, N-[4-(4-methylsulfonylpiperidine-1-carbonyl)-3-pyrrolidin-1-ylphenyl]cyclopropanecarboxamide]
63.1 to 251	CS(=O)(=O)N1CCN(C(=O)c2ccc(NC(=O)C3CC3)cc2N2CCCC2)C(c2ccccc2)C1 (centres unmarked) [Example 215, N-[4-(4-methylsulfonyl-2-phenylpiperazine-1-carbonyl)-3-pyrrolidin-1-ylphenyl]cyclopropanecarboxamide]
≤ 50.1	CN1CCN(C(=O)c2ccc(NC(=O)C3CC3)cc2N2CCCC2)C(c2ccccc2)C1 (single isomer, unassigned) [Example 62a, (2R or 2S) n-[4-(4-methyl-2-phenylpiperazine-1-carbonyl)-3-pyrrolidin-1-ylphenyl] Cyclopropanecarboxamide]
1260 to 6310	CN1CCN(C(=O)c2ccc(NC(=O)C3CC3)cc2N2CCCCCC2)C(c2ccsc2)C1 (single isomer, unassigned) [Example 70a, N-(3-(azepan-1-yl)-4-(4-methyl-2-(thiophen-3-yl)piperazine-1-carbonyl)phenyl)cyclopropane carboxamide]
316 to 1000	O=C(Nc1ccc(C(=O)N2CCN3CCCC3C2)c(N2CCCCCC2)c1)C1CC1 (centres unmarked) [Example 40, N-[3-(azepan-1-yl)-4-{octahydropyrrolo[1,2-a]pyrazine-2-carbonyl}phenyl] Cyclopropanecarboxamide]
63.1 to 251	CCCN1CCN(C(=O)c2ccc(NC(=O)C3CC3)cc2N2CCCC2)CC1 [Example 16, N-[4-(4-propylpiperazine-1-carbonyl)-3-(pyrrolidin-1-yl)phenyl] Cyclopropanecarboxamide]
63.1 to 251	O=C(Nc1ccc(C(=O)N2CCS(=O)(=O)CC2)c(N2CCC(C(F)(F)F)C2)c1)C1CC1 (racemic) [Example 183c, N-[4-(1,1-dioxo-1,4-thiazinane-4-carbonyl)-3-[3-(trifluoromethyl)pyrrolidin-1-yl]phenyl]cyclopropanecarboxamide]
316 to 1000	O=C(Nc1ccc(C(=O)N2CCN(Cc3cc[nH]n3)CC2)c(N2CCCCCC2)c1)C1CC1 [Example 23]
63.1 to 251	CN1CCN(C(=O)c2ccc(NC(=O)C3CC3)cc2N2CCCC2)C(c2cncc(Cl)c2)C1 (racemic) [Example 172, N-[4-[2-(5-chloropyridin-3-yl)-4-methylpiperazine-1-carbonyl]-3-pyrrolidin-1ylphenyl]cyclopropanecarboxamide]
63.1 to 251	CN1CCN(C(=O)c2ccc(NC(=O)C3CC3)cc2N2CCCC2)C(c2cccc(F)c2)C1 (racemic) [Example 88c, N-[4-[2-(3-fluorophenyl)-4-methylpiperazine-1-carbonyl]-3-pyrrolidin-1-ylphenyl]cyclopropanecarboxamide]
316 to 1000	O=C(Nc1ccc(C(=O)N2CCN(Cc3cccnc3)CC2)c(N2CCCCCC2)c1)C1CC1 [Example 32, N-(3-(azepan-1-yl)-4-(4-(pyridin-3-ylmethyl)piperazine-1-carbonyl)phenyl)cyclopropanecarboxamide]
